# Assays:
# [1] = test system: eIF4E nuclear bodies in NIH 3T3 cells; test: subcellular eIF4E organization, confocal immunofluorescence and fractionation/Western; assay type: cell-based, mouse
# Description: NIH 3T3 mouse fibroblasts were maintained under subconfluent conditions in DMEM (GIBCO/BRL)/10% (vol/vol) FBS/2 mM […]/0.1 mg/ml penicillin-streptomycin, at 37° C. in 5% CO2. For cell treatments, drugs were dissolved in PBS (pH 7.4) and filter-sterilized. Untreated cells received filter-sterilized PBS.
# Cells were washed with PBS, fixed in methanol for 20 min at −20° C., and blocked in PBS, 10% (vol/vol) FBS, and 0.1% (vol/vol) Tween 20 for 30 min at room temperature. Blocked cells were stained with primary antibodies against Nopp140 [1:50 (2)], Sc35 (1:50, Becton Dickinson), and eIF4E (1:50, Transduction Laboratories) in blocking solution for 3 h at room temperature. Upon washing with PBS, cells were stained with secondary antibodies in blocking solution for 30 min. FITC-conjugated donkey anti-rabbit antibody (Jackson ImmunoResearch), Texas red-conjugated donkey anti-mouse antibody, and FITC-conjugated rabbit anti-mouse antibody, as appropriate. […] Fluorescence was observed by using 100× optical magnification and 2× digital zoom using Leica TCS-SP confocal microscope using excitation wavelengths of 488, 568, or 351/364 nm. All channels were detected separately, with no observable crosstalk. […]
# Cells were washed twice with PBS and lysed by slow pipetting in 0.14 M NaCl/10 mM Tris.HCl (pH 8.4)/1.5 mM MgCl2/0.5% (vol/vol) Nonidet P-40/1 mM DTT/100 units/ml RNasin (Promega) at 4° C. […] This yielded intact nuclei, as observed by using light microscopy, with no significant cytoplasmic contamination, as evaluated using tRNA^Lys and β-actin contents. […]
# Protein from whole cells or nuclear and cytoplasmic fractions was extracted by using 0.15 M NaCl/50 mM Tris.HCl (pH 7.4)/1% (vol/vol) Nonidet P-40/0.25% (wt/vol) sodium deoxycholate/1 mM EDTA/1 mM PMSF by incubating for 30 min at 4° C. […] Bound antibodies were chemiluminescently detected by using horseradish peroxidase-conjugated secondary antibodies (Amersham Pharmacia) and SuperSignal West Pico reagent according to manufacturer's instructions (Pierce).
# [2] = target: T1, eIF4E:mRNA binding in cells (Mus musculus, UniProt P63073); test: immunopurification of eIF4E from treated cells and semiquantitative RT-PCR; assay type: cell-based
# T1 construct: endogenous in cells; host or cells: NIH 3T3 cells
# Description: Sepharose-conjugated protein G (Amersham Pharmacia) for 30 min at 4° C., incubated with 10 μg of mouse anti-eIF4E antibody (Transduction Laboratories) for 90 min at 4° C., and subsequently incubated overnight at 4° C. upon addition of 0.5 mg yeast tRNA (Sigma-Aldrich), 200 units/ml RNasin (Ambion), and Sepharose-conjugated protein G. Bound Sepharose was washed once with NET-2 buffer supplemented with 1 mg/ml heparin (Sigma-Aldrich) at 4° C., six times with NET-2 buffer alone, and suspended in 100 mM Tris.HCl (pH 6.8)/4% (wt/vol) SDS/20% (vol/vol) glycerol/12% (vol/vol) 2-mercaptoethanol, and incubated for 5 min at 98° C. RNA was extracted once with 25:24:1 […], twice with chloroform:isopropanol, precipitated overnight at −20° C. with 2.5 volumes of absolute ethanol, 0.1 volume of 5 M sodium acetate (pH 5.2), and 20 μg glycogen (Sigma-Aldrich), washed with 75% (vol/vol) ethanol, and resuspended in water. […]. […]
# liver metastatic disease = conditions: Jeney et al. 2006; cited from earlier work
# T1 sequence (P63073 2-217 limits assumed): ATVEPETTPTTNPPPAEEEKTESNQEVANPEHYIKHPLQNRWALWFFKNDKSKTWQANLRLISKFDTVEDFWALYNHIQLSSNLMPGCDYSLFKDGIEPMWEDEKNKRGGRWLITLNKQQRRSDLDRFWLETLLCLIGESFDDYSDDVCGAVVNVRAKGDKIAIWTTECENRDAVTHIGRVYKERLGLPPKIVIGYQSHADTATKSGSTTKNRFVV
structure (smiles),measurement,setting,value
"NC(=O)c1ncn([C@@H]2O[C@H](CO)[C@@H](O)[C@H]2O)n1 [Ribavirin, 1-β-D-ribofuranosyl-1,2,4-triazole-3-carboxamide]",EC50,"[1]; Mus musculus, NIH3T3, NIH 3T3, read-out: EC50 disruption of nuclear eIF4E bodies and cytoplasmic retention of eIF4E",100 to 1000 nM
same,concentration at which disruption of eIF4E nuclear bodies is evident,"[1]; NIH 3T3, 48 h",1 µM
same,concentration at which disruption of eIF4E nuclear bodies is nearly complete,"[1]; NIH 3T3, 48 h",10 µM
same,cytoplasmic eIF4E:VEGF mRNA complexes,[2]; 1 uM,partly abrogated
same,cytoplasmic eIF4E:actin mRNA complexes,[2]; 100 uM,not disrupted
same,EC50,"[2]; nuclear eIF4E, read-out: apparent EC50 inhibition of eIF4E binding to cyclin D1 mRNA in cells",~1000 nM
same,effect on liver metastatic disease,liver metastatic disease,reduce liver metastatic disease

# Source: patent US10472677B2, “Translational dysfunction based therapeutics” (Translational Therapeutics, Inc., priority 2005, dated 2019)
